ChEMBL document CHEMBL1201862, “PubChem BioAssay data set” (2004)
Active and inactive are the calls of the source.

Assays:
Vero [1] = assay: Vero cell toxicity, dose response, cytotoxicity control, plate reader, cherry-pick samples (AID 687020); type: functional, cell-based; details: Chlorocebus sabaeus
Paired box protein Pax-8 = Paired box protein Pax-8 (Homo sapiens, UniProt Q06710); assay: inhibitors of PAX8-driven TPO luciferase reporter, dose response, RMG-I cells, cherry-pick (AID 687027); type: functional, cell-based;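 note: luciferase reporter driven by Pax8 target thyroperoxidase promoter measured by SteadyGlo luminescence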
Sequence of Paired box protein Pax-8 (Q06710 whole entry): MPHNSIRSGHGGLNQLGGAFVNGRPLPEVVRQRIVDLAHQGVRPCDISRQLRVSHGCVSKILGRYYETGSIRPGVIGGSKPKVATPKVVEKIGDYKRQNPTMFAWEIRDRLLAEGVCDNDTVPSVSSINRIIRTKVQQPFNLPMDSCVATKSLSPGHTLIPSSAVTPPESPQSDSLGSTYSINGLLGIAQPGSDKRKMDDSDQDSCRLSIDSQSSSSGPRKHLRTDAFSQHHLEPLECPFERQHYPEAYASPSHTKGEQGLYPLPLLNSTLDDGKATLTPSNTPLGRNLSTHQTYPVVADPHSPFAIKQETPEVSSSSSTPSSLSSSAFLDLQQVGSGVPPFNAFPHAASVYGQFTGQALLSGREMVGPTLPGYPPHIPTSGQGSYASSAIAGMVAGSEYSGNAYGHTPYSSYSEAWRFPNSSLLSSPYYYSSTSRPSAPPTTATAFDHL

[2] = IOSE-T80 ovarian epithelial cell cytotoxicity, dose response, cytotoxicity control for PAX8 inhibitor project, plate reader, dry powder samples (AID 743045); type: functional, cell-based
[3] = NIH:OVCAR-3 ovarian cancer cell cytotoxicity, dose response, PAX8 inhibitor project, plate reader, dry powder samples (AID 743044); type: functional, cell-based
[4] = IGROV1 ovarian cancer cell cytotoxicity, dose response, PAX8 inhibitor project, plate reader, dry powder samples (AID 743043); type: functional, cell-based; details: IGROV-1
[5] = cytotoxicity in OVCAR8 ovarian cancer cells, dose response, PAX8 project, cell-based, plate reader, dry powder samples (AID 743197); type: functional; details: OVCAR-8
[6] = A549 cell cytotoxicity, dose response, cytotoxicity control, plate reader, cherry-pick, antagonist series (AID 743412); type: functional, cell-based
[7] = HepG2 cell cytotoxicity, dose response, cytotoxicity control, plate reader, cherry-pick, antagonist series (AID 743416); type: functional, cell-based
[8] = LGR2 antagonists, dose response, cell-based, HEK293, CRE-luciferase reporter, cherry pick, set 2 (AID 743343); type: functional;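 note: transfected cells were stimulated with diluted bursicon conditioned medium after compound addition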
[9] = MC4R antagonists, dose response, counter-screen for LGR2 antagonist project, cell-based, plate reader, cherry pick (AID 743444); type: functional;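 note: transfected HEK 293 cells stimulated with alpha-MSH peptide; potency of inhibitors of the alpha-MSH evoked signal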
[10] = HEK293 cell cytotoxicity, dose response, cytotoxicity control, plate reader, cherry-picked samples (AID 743446); type: functional, cell-based
[11] = biological target: Dual specificity tyrosine-phosphorylation-regulated kinase 1A (Rattus norvegicus, UniProt Q63470); type: biochemical, Homo sapiens
[12] = biological target: T1, Sentrin-specific protease 1 (Homo sapiens, UniProt Q9P0U3); assay: potency of human SENP1 inhibitors, dose response, biochemical, kinetic FRET (AID 651697); type: functional; details: read-out: IC50_Mean
T1 sequence (Q9P0U3 whole entry): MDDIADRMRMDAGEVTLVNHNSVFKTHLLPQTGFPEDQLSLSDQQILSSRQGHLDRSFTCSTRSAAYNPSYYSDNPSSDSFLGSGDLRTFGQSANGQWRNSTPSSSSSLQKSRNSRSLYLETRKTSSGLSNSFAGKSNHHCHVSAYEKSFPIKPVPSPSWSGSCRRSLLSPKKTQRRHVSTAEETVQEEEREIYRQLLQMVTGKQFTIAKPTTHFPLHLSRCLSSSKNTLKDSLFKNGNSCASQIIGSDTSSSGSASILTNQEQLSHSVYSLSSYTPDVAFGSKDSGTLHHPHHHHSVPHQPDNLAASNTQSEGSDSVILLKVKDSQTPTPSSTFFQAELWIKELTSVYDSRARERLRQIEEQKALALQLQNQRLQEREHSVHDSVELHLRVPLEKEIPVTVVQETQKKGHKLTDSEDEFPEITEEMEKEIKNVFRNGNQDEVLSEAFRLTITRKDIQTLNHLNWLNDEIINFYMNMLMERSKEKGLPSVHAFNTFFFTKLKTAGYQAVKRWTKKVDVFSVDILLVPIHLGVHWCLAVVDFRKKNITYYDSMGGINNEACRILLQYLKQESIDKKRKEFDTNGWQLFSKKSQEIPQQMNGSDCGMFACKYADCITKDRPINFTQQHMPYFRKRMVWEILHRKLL

[13] = biological target: T1, Sentrin-specific protease 1; assay: Dose response confirmation of small molecule inhibitors of the catalytic domain of the SUMO protease, SENP1 in a FRET assay.; type: functional; details: read-out: IC50_Mean
[14] = ZM109 Env clade C HIV-1 fusion inhibitors, dose response, HeLa effector, CEM target cells, luciferase, cherry-pick (AID 652058); type: functional, cell-based
[15] = off-target signal loss in HeLa-CEM21 co-culture – HeLa F-luc CTL cells, cherry-picked, counter-screen for HIV-1 Env fusion inhibitor project, dose response (AID 652040); type: functional, cell-based;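 note: potency for signal decrease marking cytotoxic or nonspecific inhibition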
[16] = biological target: 1-phosphatidylinositol 4,5-bisphosphate phosphodiesterase gamma-1 (Homo sapiens, UniProt P19174); assay: Counterscreen for inhibitors of phospholipase C isozymes (PLC-B3): Fluorescence-based biochemical high throughput dose response assay to identify inhibitors of phospholipase C isozymes (PLC-gamma1).
Sequence of 1-phosphatidylinositol 4,5-bisphosphate phosphodiesterase gamma-1 (P19174 whole entry): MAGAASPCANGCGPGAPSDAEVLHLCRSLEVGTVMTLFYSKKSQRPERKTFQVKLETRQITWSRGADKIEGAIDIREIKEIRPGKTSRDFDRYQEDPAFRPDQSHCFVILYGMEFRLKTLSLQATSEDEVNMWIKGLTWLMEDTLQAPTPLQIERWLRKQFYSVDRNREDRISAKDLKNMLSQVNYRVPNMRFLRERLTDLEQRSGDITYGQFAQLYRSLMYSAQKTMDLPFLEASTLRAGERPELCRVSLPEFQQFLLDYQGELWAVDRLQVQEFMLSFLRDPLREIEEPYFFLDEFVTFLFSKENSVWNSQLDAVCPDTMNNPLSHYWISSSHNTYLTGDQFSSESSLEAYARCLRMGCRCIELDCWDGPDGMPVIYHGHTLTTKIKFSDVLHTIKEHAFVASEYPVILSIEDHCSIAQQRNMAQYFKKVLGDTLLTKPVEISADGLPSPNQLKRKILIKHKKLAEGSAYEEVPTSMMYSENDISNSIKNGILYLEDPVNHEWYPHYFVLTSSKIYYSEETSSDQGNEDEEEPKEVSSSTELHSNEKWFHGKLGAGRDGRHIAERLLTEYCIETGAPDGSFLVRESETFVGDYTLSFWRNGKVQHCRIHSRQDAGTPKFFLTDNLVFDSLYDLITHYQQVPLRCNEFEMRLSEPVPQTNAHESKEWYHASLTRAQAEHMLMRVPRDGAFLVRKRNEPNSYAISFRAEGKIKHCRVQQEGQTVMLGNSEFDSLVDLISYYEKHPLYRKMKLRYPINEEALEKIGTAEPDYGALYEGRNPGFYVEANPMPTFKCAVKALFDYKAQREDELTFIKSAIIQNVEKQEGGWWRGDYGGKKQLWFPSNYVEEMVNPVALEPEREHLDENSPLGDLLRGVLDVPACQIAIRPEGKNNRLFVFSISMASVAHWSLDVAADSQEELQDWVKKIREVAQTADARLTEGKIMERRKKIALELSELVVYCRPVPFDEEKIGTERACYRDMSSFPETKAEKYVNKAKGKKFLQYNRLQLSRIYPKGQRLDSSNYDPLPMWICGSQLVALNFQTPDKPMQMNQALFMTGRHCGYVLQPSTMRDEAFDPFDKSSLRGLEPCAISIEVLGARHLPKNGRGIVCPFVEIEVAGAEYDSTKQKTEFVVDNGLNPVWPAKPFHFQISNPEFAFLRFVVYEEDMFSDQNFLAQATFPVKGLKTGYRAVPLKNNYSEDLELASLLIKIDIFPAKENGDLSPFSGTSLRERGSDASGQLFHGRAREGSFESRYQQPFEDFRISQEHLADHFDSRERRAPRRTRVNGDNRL

[17] = biological target: 1-phosphatidylinositol 4,5-bisphosphate phosphodiesterase beta-3 (Homo sapiens, UniProt Q01970); assay: Fluorescence-based biochemical high throughput dose response assay to identify inhibitors of phospholipase C isozymes (PLC-B3).
Sequence of 1-phosphatidylinositol 4,5-bisphosphate phosphodiesterase beta-3 (Q01970 whole entry): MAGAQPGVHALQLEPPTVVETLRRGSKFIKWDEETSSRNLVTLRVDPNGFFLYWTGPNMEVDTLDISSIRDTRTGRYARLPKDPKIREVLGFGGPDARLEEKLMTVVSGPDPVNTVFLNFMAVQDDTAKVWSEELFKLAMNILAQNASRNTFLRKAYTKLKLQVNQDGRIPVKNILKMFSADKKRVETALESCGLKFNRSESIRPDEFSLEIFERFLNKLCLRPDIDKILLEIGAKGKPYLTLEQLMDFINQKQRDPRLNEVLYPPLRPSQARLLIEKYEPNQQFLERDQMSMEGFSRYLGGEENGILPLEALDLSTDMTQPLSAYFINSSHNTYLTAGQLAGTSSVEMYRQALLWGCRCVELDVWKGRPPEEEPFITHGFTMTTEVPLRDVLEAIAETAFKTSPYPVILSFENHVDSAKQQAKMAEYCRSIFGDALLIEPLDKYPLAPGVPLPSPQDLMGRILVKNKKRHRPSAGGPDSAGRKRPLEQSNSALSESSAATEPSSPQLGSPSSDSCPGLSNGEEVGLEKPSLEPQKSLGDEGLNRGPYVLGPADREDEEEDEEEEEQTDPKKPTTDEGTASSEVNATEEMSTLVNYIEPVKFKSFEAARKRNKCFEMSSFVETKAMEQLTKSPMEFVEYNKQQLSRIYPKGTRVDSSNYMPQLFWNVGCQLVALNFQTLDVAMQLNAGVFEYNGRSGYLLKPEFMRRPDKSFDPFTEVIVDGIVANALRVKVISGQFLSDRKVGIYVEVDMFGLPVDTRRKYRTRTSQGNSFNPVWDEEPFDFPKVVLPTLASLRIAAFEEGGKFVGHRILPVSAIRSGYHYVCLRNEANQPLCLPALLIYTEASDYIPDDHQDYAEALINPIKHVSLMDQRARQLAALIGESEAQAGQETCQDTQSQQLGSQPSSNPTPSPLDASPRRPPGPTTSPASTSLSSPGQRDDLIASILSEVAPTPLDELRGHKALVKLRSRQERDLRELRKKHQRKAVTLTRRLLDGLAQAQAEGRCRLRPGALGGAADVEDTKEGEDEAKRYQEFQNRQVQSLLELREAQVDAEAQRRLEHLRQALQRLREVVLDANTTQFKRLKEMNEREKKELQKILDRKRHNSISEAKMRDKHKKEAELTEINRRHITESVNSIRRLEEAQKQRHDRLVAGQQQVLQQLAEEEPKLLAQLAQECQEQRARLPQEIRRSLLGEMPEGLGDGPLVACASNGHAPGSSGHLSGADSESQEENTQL

[18] = HEp-2 cell cytotoxicity, dose response, cytotoxicity control for RSV inhibitor project, HTS (AID 2410); type: functional; details: human respiratory syncytial virus
[19] = biological target: T2, Disintegrin and metalloproteinase domain-containing protein 17 (Homo sapiens, UniProt P78536); assay: exosite inhibitors of ADAM17, dose response, biochemical (AID 743260)
T2 sequence (P78536 whole entry, the tested form may be a part): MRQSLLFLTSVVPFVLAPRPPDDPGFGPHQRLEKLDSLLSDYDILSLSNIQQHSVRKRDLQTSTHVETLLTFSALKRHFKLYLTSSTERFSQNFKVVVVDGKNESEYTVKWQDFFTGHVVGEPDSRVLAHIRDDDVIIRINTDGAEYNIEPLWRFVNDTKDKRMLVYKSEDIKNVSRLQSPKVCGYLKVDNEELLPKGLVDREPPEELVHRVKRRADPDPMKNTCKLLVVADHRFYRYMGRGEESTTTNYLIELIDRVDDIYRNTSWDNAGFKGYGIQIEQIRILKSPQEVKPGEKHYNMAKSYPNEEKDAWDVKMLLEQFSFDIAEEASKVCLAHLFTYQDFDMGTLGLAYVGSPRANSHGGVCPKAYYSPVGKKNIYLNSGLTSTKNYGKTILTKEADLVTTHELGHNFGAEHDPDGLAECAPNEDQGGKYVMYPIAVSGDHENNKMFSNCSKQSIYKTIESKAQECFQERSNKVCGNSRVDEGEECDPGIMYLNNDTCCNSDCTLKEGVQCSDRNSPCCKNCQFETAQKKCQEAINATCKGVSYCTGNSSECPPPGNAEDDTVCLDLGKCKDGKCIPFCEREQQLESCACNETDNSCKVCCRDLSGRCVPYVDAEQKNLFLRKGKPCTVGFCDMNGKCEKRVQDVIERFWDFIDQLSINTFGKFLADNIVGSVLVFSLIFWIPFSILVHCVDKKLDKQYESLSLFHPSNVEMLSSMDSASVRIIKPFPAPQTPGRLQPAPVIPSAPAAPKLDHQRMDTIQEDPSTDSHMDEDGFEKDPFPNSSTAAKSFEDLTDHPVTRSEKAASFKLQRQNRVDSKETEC

[20] = ADAM10 protease inhibitors, dose response, selectivity assay for ADAM17 exosite inhibitor project, biochemical, FRET peptide substrate, recombinant human ADAM10 (AID 743259);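 note: ADAM10 enzyme cleaving a FRET peptide substrate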
Leucine aminopeptidase = biological target: T3, Leucine aminopeptidase (Plasmodium falciparum 3D7, UniProt Q8IL11); assay: P. falciparum M17LAP inhibitors, primary screen, biochemical, fluorogenic H-Leu-NHMec substrate, 1536-well (AID 1619); type: functional
T3 sequence (Q8IL11 whole entry): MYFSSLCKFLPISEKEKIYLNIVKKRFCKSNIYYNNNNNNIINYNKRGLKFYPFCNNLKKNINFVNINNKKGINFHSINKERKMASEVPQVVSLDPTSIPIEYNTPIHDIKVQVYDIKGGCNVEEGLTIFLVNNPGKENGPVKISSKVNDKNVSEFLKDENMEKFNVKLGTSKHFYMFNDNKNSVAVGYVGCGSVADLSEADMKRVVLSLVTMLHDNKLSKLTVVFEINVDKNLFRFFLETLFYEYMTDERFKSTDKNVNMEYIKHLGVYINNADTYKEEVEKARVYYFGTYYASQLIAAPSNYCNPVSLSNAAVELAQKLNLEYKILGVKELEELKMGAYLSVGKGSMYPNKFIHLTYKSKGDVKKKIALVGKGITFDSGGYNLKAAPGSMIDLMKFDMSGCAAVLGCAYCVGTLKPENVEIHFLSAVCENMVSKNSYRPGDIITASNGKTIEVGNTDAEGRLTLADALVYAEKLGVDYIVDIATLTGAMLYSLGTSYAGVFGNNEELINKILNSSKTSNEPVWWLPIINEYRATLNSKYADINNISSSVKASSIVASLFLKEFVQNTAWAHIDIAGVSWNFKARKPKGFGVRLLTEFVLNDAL

Vero [21] = assay: Vero cell cytotoxicity, cytotoxicity control for flavivirus capping enzyme inhibitors (AID 588742); type: functional; details: Chlorocebus sabaeus
Genome polyprotein = Genome polyprotein (dengue virus type 2, UniProt P29990); assay: Dengue-2 NS5 methyltransferase inhibitors, primary screen, biochemical, confirmation dose response (AID 588689); type: functional
Sequence of Genome polyprotein (P29990 2492-3391 limits assumed): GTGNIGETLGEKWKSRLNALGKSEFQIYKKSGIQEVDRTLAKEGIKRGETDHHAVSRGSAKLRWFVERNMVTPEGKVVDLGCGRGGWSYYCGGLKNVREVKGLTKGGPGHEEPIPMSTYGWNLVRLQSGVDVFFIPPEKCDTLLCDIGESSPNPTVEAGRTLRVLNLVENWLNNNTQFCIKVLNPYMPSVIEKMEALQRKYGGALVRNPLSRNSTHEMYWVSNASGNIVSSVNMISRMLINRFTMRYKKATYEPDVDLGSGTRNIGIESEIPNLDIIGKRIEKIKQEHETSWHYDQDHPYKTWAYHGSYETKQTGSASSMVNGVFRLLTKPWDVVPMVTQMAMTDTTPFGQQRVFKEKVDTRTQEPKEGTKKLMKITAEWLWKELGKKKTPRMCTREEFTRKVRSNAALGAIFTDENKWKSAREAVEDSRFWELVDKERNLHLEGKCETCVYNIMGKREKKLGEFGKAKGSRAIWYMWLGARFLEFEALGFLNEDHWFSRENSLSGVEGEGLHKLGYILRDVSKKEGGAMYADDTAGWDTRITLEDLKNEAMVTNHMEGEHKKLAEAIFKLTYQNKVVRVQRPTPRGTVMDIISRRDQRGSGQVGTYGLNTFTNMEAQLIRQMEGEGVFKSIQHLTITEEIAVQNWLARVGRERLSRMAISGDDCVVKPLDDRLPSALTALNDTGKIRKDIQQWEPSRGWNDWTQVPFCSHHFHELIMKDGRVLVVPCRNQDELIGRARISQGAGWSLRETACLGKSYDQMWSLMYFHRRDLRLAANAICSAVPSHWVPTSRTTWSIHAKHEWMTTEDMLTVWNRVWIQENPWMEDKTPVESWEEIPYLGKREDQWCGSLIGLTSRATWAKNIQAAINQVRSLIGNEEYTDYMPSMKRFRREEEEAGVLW

[22] = biological target: T4, Heat shock factor protein 1 (Mus musculus, UniProt P38532); assay: inhibition of MG132-induced HSE-luciferase signal, confirmation, cell-based, NIH3T3, luminescence, dose retest (AID 2382); type: functional;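 note: NIH3T3 fibroblasts with HSF1-driven luciferase reporter stressed by proteasome inhibitor MG132; luminescence from HSF1-driven luciferase expression after 8 hours of MG132 stress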
T4 sequence (P38532 whole entry): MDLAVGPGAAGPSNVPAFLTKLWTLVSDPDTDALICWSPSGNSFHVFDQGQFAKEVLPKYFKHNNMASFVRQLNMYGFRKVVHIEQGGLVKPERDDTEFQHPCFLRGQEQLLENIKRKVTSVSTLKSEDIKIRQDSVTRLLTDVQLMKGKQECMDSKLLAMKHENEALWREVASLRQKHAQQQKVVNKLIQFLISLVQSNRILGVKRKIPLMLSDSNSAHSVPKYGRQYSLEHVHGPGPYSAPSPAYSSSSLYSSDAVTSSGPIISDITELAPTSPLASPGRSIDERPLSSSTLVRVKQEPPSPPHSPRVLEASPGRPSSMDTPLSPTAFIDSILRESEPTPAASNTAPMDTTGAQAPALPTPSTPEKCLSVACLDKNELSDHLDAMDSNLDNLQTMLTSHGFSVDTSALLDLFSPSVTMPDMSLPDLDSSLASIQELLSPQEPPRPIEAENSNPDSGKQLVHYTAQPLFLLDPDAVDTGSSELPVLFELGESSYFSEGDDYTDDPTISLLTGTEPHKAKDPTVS

[23] = non-specific cell cytotoxicity, dose response, cytotoxicity control for PAX8 inhibitor project, plate reader, dry powder samples (AID 743021); type: functional, cell-based
[24] = ADAM10 inhibitors, peptide cleavage, dose response, biochemical, QFRET (AID 743254);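 note: ADAM10 enzyme with the DM2 quenched FRET peptide as substrate; EDANS fluorescence gain as the protease cuts the substrate; inhibitor potency against ADAM10 proteolytic activity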
[25] = biological target: T2, Disintegrin and metalloproteinase domain-containing protein 17; assay: ADAM17 protease inhibitors, dose response, counter-screen for ADAM10 exosite inhibitor project, biochemical, quenched FRET substrate (AID 743253)
[26] = Luminescence Cell-Based Dose Retest to Confirm Inhibitors of Cancer Stem Cells. [Related pubchem assays (depositor defined):AID2717, AID2721]; type: functional; details: Homo sapiens
[27] = inhibitors of HIV Env-driven cell fusion, dose response, cherry-pick (AID 652057); type: functional, cell-based
[28] = CEM21 lymphoblast cell cytotoxicity, dose response, cytotoxicity control for viral fusion inhibitor project, CellTiter-Glo luminescence, cherry-picked (AID 652042); type: functional, cell-based;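 note: potency for signal decrease meaning cytotoxicity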
[29] = inhibitors of clade B AD8 Env fusion, dose response, cell-based, cherry-pick (AID 652062); type: functional;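 note: luciferase signal from cell-cell fusion driven by HIV-1 clade B AD8 Env; potency is for inhibitors of fusion seen as a drop in luminescence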
[30] = Shn3 3'UTR reporter inhibitors, dose response, cell-based, Clone20 osteoblasts, firefly luciferase, cherry-picked (AID 624132); type: functional;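 note: firefly luciferase luminescence from reporter carrying the Shn3 3'UTR in osteoblasts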
[31] = control 3'UTR Renilla luciferase suppression, dose response, counter-screen for Shn3 inhibitor project, cell-based, Clone20-Shn3RL, cherry-picked (AID 624133); type: functional

CSc1ccc(S(=O)(=O)NC2CC3CCC2C3)cc1 (centres undefined)
AC50 (Vero [1]): 16.8 µM (active)

Cc1cccc(S(=O)(=O)N2CCCCN3[C@H](CO)[C@H](c4ccc(C#CC(C)C)cc4)[C@H]3C2)c1
AC50 (Paired box protein Pax-8): 9.99 µM (active) | AC50 [2]: 36.9 µM (active) | AC50 [3]: 9.65 µM (active) | AC50 [4]: 39.5 µM (active) | AC50 [5]: 28.4 µM (active)

CCCCc1c(-c2cccc(OC)c2)ncn1CCc1ccccc1OC
AC50 [6]: 19.2 µM (active) | AC50 [7]: 15.1 µM (active) | AC50 [8]: 16.3 µM (active) | AC50 [9]: 12.9 µM (active) | AC50 [10]: 29 µM (active)

Cc1ccc2c(c1)C(=C(C#N)C#N)CCN2
AC50 [11]: 5.69 µM (active) | IC50 [12]: 20.1 µM (inactive) | IC50 [13]: 11 µM (active) | AC50 [14]: 2 µM (active) | AC50 [15]: 42.3 µM (active)

CC(=O)N1C[C@@H](c2c[nH]c3ccccc23)C=C[C@H]1C(=O)NS(=O)(=O)c1ccc(C)cc1
IC50 [16]: > 4.54 µM (active) | IC50 [17]: > 122 µM (inactive)

CCOc1cc2c3c(c1)C1(C(=O)N3C(C)(C)C=C2C)C(C#N)=C(N)Oc2cc(O)ccc21 (centres undefined)
CC50 [18]: 11.8 µM (active) | IC50 [19]: > 69.5 µM (inactive) | IC50 [20]: > 69.5 µM (inactive)

O=Cc1cc(N=Nc2cccc(C(=O)O)c2)ccc1O
IC50 (Leucine aminopeptidase): 51.5 µM (active) | CC50 (Vero [21]): > 40 µM (active) | IC50 (Genome polyprotein): 99.6 µM (active) | IC50 [16]: 23.7 µM (inactive) | IC50 [17]: > 122 µM (inactive)

CC1(C)CC(NC(=O)COc2ccccc2Cl)CC(C)(C)N1
EC50 [22]: 2.65 µM (active) | AC50 (Vero [1]): 33.7 µM (active)

COc1ccc(S(=O)(=O)N(C)C[C@@H]2OCCCC[C@H](C)Oc3ccc(NS(=O)(=O)c4ccc(Cl)cc4)cc3C(=O)N([C@H](C)CO)C[C@@H]2C)cc1
AC50 (Paired box protein Pax-8): 4.8 µM (active) | AC50 [3]: 26.9 µM (active) | AC50 [23]: 58.4 µM (active)

CCCCn1nnnc1C(CCc1ccccc1)N1CCC(n2c(O)nc3ccccc32)CC1 (centres undefined)
AC50 [6]: 19 µM (active) | AC50 [7]: > 52 µM (inactive) | AC50 [8]: 20.1 µM (active) | AC50 [9]: 7.55 µM (active) | AC50 [10]: 19.8 µM (active)

CCOc1ccc(/C=N/NC(=O)Cc2csc(Nc3cccc(C(F)(F)F)c3)n2)c(OCC)c1
IC50 [24]: > 69.5 µM (inactive) | IC50 [25]: > 69.5 µM (inactive)

Cc1nn(Cc2ccc(Cl)c(Cl)c2)c(C)c1NC(=O)c1cc(-c2ccc3c(c2)OCO3)on1
AC50 [26]: 471 nM (active) | AC50 [27]: 20.3 µM (active) | AC50 [28]: 20.6 µM (active) | AC50 [14]: 28.7 µM (active) | AC50 [15]: > 70 µM (inactive) | AC50 [29]: 56 µM (active)

C=CCC[C@H](Cc1ccc(F)cc1)C(=O)OC[C@H](Cc1c[nH]c2ccccc12)NC(=O)[C@H](CC=C)CC(=O)N(CCO)Cc1ccccc1
AC50 [30]: 11.7 µM (active) | AC50 [31]: 20.1 µM (active) | AC50 (Paired box protein Pax-8): 12.9 µM (active) | IC50 [24]: 6.93 µM (active) | IC50 [25]: > 69.5 µM (inactive)
